Assay results as given in US6310093A (priority 1998, dated 2001).
Where two headings read alike, the source gives them in different places.

How the values were obtained:
[1] = test system: mixed neuronal-astrocyte cultures; experiment: cells; details: Mus musculus
[2] = test system: glial cultures (astrocytes); experiment: Glutamate production in intact glial cultures with added glutamine; format: cell-based, mouse (Swiss Webster)
Description: The glutamate concentration of glial cultures was maintained below 1 μM when cells were maintained in the absence or presence of 2 mM added glutamine or when subjected to hypoxic conditions (see below). The medium glutamate concentration remained unchanged between 7 and 24 h after medium change and was 0.14±0.04 μM and 0.36±0.06μM in medium containing 0.15 mM or 2.0 mM glutamine, respectively. Based on these steady state concentrations and the measured rate of glutamate uptake, the rates of glutamate production in the absence and presence of added glutamine were calculated to be 0.012 μM/min (4.8 pmol/min) and 0.030 μM/min (12 pmol/min), respectively. Thus, the calculated rates of glutamate production by glial cultures are only slightly affected by the addition of glutamine and are similar to those observed in intact neurons cultured in the absence of added glutamine.
Pre-column derivatization with o-phthalaldehyde (OPA, Sigma) and separation by reversed phase HPLC was used. A Gilson HPLC was fitted with a Hewlett-Packard model 1046A fluorimetric detector (excitation 340 nm, emission 420 nm). Medium was collected from cell culture at various times, and frozen at -80° C., prior to dilution of 5 or 10 μl into auto-sampler vials containing 40 or 45 μl dimethylformamide:water 1:3 (derivatives with 2-mercaptoethanol) or 1:9 (derivatives with N-acetyl-L-cysteine). […]
In cultures where glutamate concentrations are (within error) constant, d[Glu]/dt is close to zero, and cellular production of medium glutamate is balanced by its removal, such that glutamate production can be calculated from the steady state equation: […]
Calculations were performed using the slopes of the regression lines which describe the rate constants for glutamate removal and the mean values for culture medium glutamate concentrations. […] For comparative purposes, glutamate production rates can be expressed as pmol of glutamate produced per min in each culture. […]

[3] = test system: pure neuronal cultures (cortical neurons) exposed to glutamine; experiment: cells; details: Mus musculus, Cortical neurone, 24 h, read-out: neuronal LDH release

NC(=O)CC[C@H](N)C(=O)O [Gln, glutamine] was tested, and the cytotoxicity at 2000 µM ([1]; 7 h, read-out: neuronal LDH release) was 48.5 ± 14.4%, the cytotoxicity at 2000 µM ([1]; 24 h, read-out: % cell death (LDH)) was 42.2% and the cytotoxicity at 2000 µM ([1]; read-out: neuronal death in hypoxia with added glutamine) was ~40%. The Glutamate concentration ([2]; Table 2, glial, 2 mM Gln) was 0.36 ± 0.06, the “Glutamate production (S)” value ([2]; Table 2, glial, 2 mM Gln) was 0.03 and the “glutamate production per culture” value ([2]; glial, 2 mM glutamine) was 12 pmol/min. It also gave a cytotoxicity at 2000 µM [3] of 62 ± 22%.
